The results in this text go back to patent US9309242B2, “Substituted pyrido[2,3-b]pyrazines as FGFR kinase inhibitors” (priority 2011, dated 2016).

pIC50: −log10 of the molar value.

One assay has as its target FGFR1 (h) (Homo sapiens, UniProt P11362). The assay is described as follows: FGFR1 (enzymatic assay), TR-FRET. It counts as biochemical. Particulars: read-out: FGFR 1 pIC50 (converted). For orientation: In TR-FRET formats the signal depends on donor and acceptor labels being close together.
The target of assay [1] is Ba/F3-FGFR4-transfected cells (Homo sapiens, UniProt P22455). The assay is described as follows: Ba/F3-FGFR4 cellular proliferation assay, Alamar Blue. Type of assay: cell-based. In outline: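 Step one: compound dilutions in DMSO are sprayed into wells. Step two: transfected Ba/F3-FGFR4 cells are added at 20000 per well and incubated 24 hours at 37° C. Step three: Alamar Blue is added for 4 hours and relative fluorescence is measured.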
Sequence of Ba/F3-FGFR4-transfected cells (P22455 whole entry, change not shown): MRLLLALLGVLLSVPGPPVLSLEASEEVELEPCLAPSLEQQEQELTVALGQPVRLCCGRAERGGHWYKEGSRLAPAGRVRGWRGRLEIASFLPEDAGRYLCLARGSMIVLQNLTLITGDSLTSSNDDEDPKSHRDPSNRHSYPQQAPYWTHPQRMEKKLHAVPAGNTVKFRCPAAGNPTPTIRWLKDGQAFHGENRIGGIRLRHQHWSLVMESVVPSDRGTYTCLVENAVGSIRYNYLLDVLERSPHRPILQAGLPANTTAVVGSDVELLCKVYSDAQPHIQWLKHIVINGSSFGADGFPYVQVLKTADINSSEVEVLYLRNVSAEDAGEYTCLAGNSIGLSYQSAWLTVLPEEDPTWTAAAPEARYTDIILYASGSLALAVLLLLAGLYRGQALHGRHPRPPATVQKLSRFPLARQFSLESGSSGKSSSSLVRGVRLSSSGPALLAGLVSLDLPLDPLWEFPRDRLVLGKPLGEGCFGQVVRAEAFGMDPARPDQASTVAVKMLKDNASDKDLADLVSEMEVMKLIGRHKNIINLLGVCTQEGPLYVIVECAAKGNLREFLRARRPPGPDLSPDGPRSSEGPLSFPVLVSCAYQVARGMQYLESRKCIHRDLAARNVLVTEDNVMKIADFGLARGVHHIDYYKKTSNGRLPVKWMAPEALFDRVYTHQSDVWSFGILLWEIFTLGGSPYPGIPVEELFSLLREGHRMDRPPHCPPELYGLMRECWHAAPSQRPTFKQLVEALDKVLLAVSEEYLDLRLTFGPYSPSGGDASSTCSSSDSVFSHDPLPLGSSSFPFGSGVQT

The next assay has as its target FGFR3 (h) (Homo sapiens, UniProt P22607). The assay is described as follows: FGFR3 (enzymatic assay), TR-FRET. Type of assay: biochemical. Particulars: read-out: FGFR 3 pIC50 (converted). The source says:
Time-Resolved Fluorescence Resonance Energy Transfer (TR-FRET) signal (ex340 nm.

Another assay deals with FGFR4 (h) (Homo sapiens, UniProt P22455). The assay is described as follows: FGFR4 (enzymatic assay), TR-FRET. Type of assay: biochemical. The conditions noted are these: FGFR 4 pIC50, enzymatic assay.
Sequence of FGFR4 (h) (P22455 22-802): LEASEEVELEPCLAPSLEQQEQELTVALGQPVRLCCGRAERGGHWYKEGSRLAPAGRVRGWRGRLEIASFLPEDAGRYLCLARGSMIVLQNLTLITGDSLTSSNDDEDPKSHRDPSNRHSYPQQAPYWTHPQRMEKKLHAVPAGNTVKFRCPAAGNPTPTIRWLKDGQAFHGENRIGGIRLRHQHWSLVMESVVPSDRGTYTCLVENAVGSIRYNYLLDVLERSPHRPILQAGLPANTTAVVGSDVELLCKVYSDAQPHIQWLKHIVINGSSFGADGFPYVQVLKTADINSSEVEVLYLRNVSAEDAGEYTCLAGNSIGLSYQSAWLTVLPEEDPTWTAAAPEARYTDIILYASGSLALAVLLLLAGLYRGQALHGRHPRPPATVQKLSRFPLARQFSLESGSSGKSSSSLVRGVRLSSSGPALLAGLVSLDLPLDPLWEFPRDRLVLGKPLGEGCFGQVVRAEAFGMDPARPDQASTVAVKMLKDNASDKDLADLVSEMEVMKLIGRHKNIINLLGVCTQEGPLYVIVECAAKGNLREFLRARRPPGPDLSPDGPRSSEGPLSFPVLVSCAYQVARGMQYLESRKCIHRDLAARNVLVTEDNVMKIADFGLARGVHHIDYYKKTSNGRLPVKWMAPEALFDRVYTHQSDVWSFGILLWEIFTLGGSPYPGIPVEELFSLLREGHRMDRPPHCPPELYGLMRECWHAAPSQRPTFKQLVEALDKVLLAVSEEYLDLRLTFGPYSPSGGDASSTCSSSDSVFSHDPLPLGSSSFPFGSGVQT
The target in the next assay is KDR (h) (Homo sapiens, UniProt P35968). Put plainly: KDR (VEGFR2) (enzymatic assay), TR-FRET. Type of assay: biochemical. The conditions noted are these: read-out: VEGFR 2 (KDR) pIC50 (converted). In outline: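 Phosphorylation of biotinylated Flt3 peptide (500 nM) by 150 ng/ml enzyme was measured at 3 μM ATP in Mn2+-containing HEPES buffer, pH 7.5, over 120 min at room temperature. Detection used Eu-anti-P-Tyr and SA-XL-665 TR-FRET.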
Sequence of KDR (h) (P35968 20-1356): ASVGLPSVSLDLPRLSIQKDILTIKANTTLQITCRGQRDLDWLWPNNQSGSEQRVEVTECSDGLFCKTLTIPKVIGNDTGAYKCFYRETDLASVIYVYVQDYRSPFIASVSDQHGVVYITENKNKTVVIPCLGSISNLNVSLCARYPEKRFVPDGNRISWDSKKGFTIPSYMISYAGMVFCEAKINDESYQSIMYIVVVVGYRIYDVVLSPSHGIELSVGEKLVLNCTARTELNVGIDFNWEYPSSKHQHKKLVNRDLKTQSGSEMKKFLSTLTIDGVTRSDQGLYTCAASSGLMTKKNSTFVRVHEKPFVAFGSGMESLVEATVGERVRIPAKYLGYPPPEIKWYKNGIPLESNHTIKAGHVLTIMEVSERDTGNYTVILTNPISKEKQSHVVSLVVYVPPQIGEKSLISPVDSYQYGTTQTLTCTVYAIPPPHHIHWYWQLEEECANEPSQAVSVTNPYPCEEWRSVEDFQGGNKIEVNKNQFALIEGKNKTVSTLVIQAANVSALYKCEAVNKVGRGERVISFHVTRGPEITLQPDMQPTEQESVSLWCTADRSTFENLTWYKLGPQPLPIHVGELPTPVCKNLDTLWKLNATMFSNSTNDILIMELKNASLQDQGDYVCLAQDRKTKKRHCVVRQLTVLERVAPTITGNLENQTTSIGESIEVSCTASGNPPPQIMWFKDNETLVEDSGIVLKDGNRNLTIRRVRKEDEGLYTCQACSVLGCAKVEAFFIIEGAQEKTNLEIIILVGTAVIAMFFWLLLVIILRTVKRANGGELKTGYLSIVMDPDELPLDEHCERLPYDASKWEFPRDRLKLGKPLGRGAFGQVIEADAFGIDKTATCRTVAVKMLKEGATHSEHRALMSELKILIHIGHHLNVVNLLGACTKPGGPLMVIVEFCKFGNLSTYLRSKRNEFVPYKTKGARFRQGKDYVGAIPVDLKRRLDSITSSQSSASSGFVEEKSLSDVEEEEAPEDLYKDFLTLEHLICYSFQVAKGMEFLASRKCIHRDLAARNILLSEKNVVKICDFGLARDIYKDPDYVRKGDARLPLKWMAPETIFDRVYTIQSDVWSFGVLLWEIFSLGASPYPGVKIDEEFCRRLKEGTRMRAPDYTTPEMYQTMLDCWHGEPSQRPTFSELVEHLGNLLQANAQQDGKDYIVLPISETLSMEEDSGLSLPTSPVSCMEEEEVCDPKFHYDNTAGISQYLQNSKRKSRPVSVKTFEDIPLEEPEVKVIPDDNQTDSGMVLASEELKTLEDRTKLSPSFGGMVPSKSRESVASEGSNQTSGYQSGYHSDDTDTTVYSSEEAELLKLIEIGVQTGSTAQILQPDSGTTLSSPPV

The target in assay [2] is T1, Ba/F3-KDR-transfected cells (Homo sapiens, UniProt P35968).
T1 construct: BAF3-KDR (MIN IL3) pIC50; other: minus IL3
The assay is described as follows: Ba/F3-KDR (minus IL3) cellular proliferation assay, Alamar Blue. Type of assay: cell-based. In outline: (§1)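 Compound in DMSO was dispensed first, then transfected cells in serum-containing RPMI-1640 were added. After a 24 h incubation, viability was gauged by resazurin reduction over 4 h, measured as fluorescence.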

The subject of assay [3] is Ba/F3-FGFR3-transfected cells. Put plainly: Ba/F3-FGFR3 (plus IL3) cellular proliferation assay, counterscreen with 10 ng/ml murine IL3. It counts as cell-based. Particulars: plus IL3 (10 ng/ml murine IL3, counterscreen); read-out: BAF3-FGFR3 (PLUS IL3) pIC50 (converted). The gist of the method: (§2)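 Viability readout was resazurin reduction (ex 540/em 590 nm) after 4 h, following 24 h compound treatment at 37 °C of FGFR3-transfected Ba/F3 cells (20000/well, RPMI-1640/10% FBS). IL3-dependent counterscreen used identical conditions plus 10 ng/ml murine IL3.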

For assay [4], the target named is T2, Ba/F3-FGFR3-transfected cells (Homo sapiens, UniProt P22607).
T2 construct: BAF3-FGFR3 (MIN IL3) pIC50; other: minus IL3
T2 sequence (P22607 whole entry, change not shown): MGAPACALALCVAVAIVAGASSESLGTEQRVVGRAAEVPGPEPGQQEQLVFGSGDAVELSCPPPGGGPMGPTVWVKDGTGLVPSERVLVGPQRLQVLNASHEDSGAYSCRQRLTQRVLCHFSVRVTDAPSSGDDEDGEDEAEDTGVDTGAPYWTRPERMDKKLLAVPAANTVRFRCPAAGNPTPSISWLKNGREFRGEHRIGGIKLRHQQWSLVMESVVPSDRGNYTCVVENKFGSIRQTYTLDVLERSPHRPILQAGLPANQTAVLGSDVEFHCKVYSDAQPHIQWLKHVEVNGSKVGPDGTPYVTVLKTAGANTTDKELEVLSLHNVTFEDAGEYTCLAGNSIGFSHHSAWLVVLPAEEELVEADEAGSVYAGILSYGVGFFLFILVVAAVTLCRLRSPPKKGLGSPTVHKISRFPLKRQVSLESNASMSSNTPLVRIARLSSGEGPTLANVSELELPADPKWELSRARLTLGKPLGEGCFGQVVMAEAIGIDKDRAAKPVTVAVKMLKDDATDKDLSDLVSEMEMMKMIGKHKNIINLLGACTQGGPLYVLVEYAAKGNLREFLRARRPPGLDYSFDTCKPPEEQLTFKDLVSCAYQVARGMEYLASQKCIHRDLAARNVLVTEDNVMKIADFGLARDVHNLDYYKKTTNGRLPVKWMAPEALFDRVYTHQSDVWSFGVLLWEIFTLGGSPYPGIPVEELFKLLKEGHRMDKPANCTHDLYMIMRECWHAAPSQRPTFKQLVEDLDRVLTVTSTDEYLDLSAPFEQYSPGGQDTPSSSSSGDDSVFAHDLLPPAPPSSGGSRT
The assay is described as follows: Ba/F3-FGFR3 (minus IL3) cellular proliferation assay, Alamar Blue. Type of assay: cell-based. The gist of the method:
as §2

The test system of assay [5] is Ba/F3-KDR-transfected cells. The assay is described as follows: Ba/F3-KDR (plus IL3) cellular proliferation assay, counterscreen with 10 ng/ml murine IL3. Particulars: plus IL3 (10 ng/ml murine IL3, counterscreen); read-out: BAF3-KDR (PLUS IL3) pIC50 (converted). Type of assay: cell-based. In outline: as §1
Background: Counterscreens check selectivity or assay interference.

Sequence of FGFR1 (h) (P11362 22-822): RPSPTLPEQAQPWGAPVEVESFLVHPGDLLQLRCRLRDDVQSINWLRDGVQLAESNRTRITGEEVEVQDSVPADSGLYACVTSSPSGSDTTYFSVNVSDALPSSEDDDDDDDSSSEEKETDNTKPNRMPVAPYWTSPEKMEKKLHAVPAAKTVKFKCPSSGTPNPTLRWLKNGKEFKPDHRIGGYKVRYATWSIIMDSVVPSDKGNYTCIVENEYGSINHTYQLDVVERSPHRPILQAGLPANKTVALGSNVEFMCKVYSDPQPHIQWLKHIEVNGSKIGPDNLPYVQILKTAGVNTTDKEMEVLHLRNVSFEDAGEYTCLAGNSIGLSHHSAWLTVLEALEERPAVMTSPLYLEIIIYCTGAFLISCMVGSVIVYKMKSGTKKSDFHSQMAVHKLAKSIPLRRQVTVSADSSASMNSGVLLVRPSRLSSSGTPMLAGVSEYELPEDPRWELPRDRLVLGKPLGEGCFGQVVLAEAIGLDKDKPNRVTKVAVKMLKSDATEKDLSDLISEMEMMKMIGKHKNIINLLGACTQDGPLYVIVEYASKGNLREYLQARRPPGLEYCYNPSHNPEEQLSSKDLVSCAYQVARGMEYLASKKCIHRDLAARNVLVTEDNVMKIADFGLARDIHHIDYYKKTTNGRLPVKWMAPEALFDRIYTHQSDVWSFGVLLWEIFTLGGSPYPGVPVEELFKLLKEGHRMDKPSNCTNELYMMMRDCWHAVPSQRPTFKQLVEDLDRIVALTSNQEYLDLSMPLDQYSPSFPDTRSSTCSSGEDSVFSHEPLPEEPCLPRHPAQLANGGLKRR

For orientation: pIC50 means −log10 of the IC50, conventionally taken in molar units. With `COc1cc(OC)cc(N(CCS(C)(=O)=O)c2ccc3ncc(-c4cnn(CCS(C)(=O)=O)c4)nc3n2)c1` [Compound 275], the IC50 was 5.89 nM at FGFR1 (h); 3.39 nM on FGFR3 (h); 141 nM at KDR (h); above 10000 nM in assay [3]; above 10000 nM in assay [5]. Further, the “BAF3-FGFR4 pIC50” value in assay [1] was 5.13. The same molecule gave a pIC50 against FGFR4 (h) of 7.92. In addition, the “BAF3-KDR (MIN IL3) pIC50” value in assay [2] is reported as below 5. Moreover, the “BAF3-FGFR3 (MIN IL3) pIC50” value in assay [4] is given as 5.80.

`COCC(O)Cn1/c(=N/c2cc(OC)cc(OC)c2F)ccc2ncc(-c3cnn(C)c3)nc21` (single isomer, unassigned) [Compound 60]: the IC50 on FGFR1 (h) was 0.741 nM; at FGFR3 (h), 0.525 nM; at KDR (h), 8.91 nM; in assay [3] it was above 10000 nM; in assay [5] it was above 10000 nM. Also, the “BAF3-FGFR4 pIC50” value in assay [1] is reported as 7.76. The same molecule showed a negative logarithm of the IC50 (pIC50) against FGFR4 (h) of 9.14. Besides, the “BAF3-KDR (MIN IL3) pIC50” value in assay [2] was determined as 6.58. For the same molecule, the “BAF3-FGFR3 (MIN IL3) pIC50” value in [4] worked out at 8.15.
